According to patent USRE30149E, “Preparation of antifibrinolytically active isomer of 4-aminomethylcyclohexane carboxylic acid” (AB Kabi, priority 1963, dated 1979):

Key:
[1] = tested on: streptokinase-induced fibrinolysis (fibrinogen, plasminogen, thrombin system); experiment: in vitro antifibrinolytic activity, 50% inhibition of streptokinase-induced fibrinolysis; type: biochemical; settings: for Actual amount of compound for 50% inhibition of 6 units of streptokinase: fibrinogen, plasminogen, thrombin plus 6 units of streptokinase
Experimental: Antifibrinolytic activity quantitative assay was conducted by a technique utilizing the procedures described by Christensen, L. E. in J. clin. Invest., volume 28 (1949), page 163, and Wasserman, A. E., et al. in J. Lab. clin. Med., volume 4 (1953), page 812. […] The system consists of fibrinogen, plasminogen, and thrombin, to which is added 6 units of streptokinase which produces a lytic effect. The 50% inhibition studied corresponds to a lytic activity of 3 units of streptokinase. […] The time necessary for the formed plasmin to dissolve a standard fibrin coagulum is determined.
The following table furnishes the data on the in vitro antifibrinolytic activity of the several compounds considered in this specification, expressed as 50% inhibition of 6 units of streptokinase: […]

fibrinolysis = settings: cited from earlier work
[2] = animal organism, i.e. the subject being treated; cited from earlier work

| SMILES | antifibrinolytic activity ([1]; evaluation of the two separate AMCHA isomers) | Actual amount of compound for 50% inhibition of 6 units of streptokinase ([1]; in vitro) | Relative activity ([1]; in vitro, 50% inhibition of 6 units of streptokinase, relative to EACA = 1) | antifibrinolytic activity in clinical use (fibrinolysis) | excretion [2] |
| --- | --- | --- | --- | --- | --- |
| NCC1CCC(C(=O)O)CC1 (single isomer, unassigned; isomer 4) [Inactive-AMCHA isomer, 4-aminomethyl-cyclohexane carboxylic acid] | practically devoid of any antifibrinolytic activity | 30 γ | – | – | – |
| NCC1CCC(C(=O)O)CC1 (single isomer, unassigned; isomer 4) [Active-AMCHA isomer, 4-aminomethyl-cyclohexane carboxylic acid] | – | 0.2 γ | – | – | – |
| NCC1CCC(C(=O)O)CC1 (single isomer, unassigned; isomer 4) [Isomeric AMCHA, comprising 10% active isomer, 4-aminomethyl-cyclohexane carboxylic acid] | – | 2 γ | – | – | – |
| NCCCCCC(=O)O [EACA, epsilon-aminocaproicacid] | – | 4 γ | 1 | acceptable degree of antifibrinolytic activity | so rapidly excreted |
